Laboratory results as given in paper PMC9284491 (Nature Communications, 2022).

Assays:
[1] = test system: ER activity signature (87 genes); test: ER activation score by GSVA of RNA-seq from paired tumor biopsies; type: in vivo, human
From the text: Total RNA was extracted from FFPE tissue (slides of 10 μm). A targeted-enrichment RNA-seq approach was applied utilizing KAPA RNA HyperPrep and whole exome […] kits (Roche) followed by the generation of sequencing reads with NextSeq 500 (Illumina). RNA-seq FASTQ files were processed with STAR aligner and Cufflinks to generate gene-level fragments per kilobase of transcript per million mapped reads (FPKM)[34],[47],[48]. Those FPKM values were converted to the gene-level estimation of expression in transcripts per million (TPM). The TPM data were then quantile-normalized and log2-transformed. GSVA was employed to calculate the ER activation score by using the ER activity signature (87 genes)[31]. […] Results were analyzed using descriptive statistics.

[2] = set-up: method as in PMID 31721572; details: preclinical; cited from earlier work
[3] = Dose-limiting toxicities, MTD and RP2D in dose escalation; type: in vivo
Procedure: During dose escalation, treatment was initiated on day 1 in the fasting state in cohorts starting at a dose of 20 mg orally QD, escalating in subsequent cohorts to planned doses of 50–600 mg. For all cohorts, treatment was omitted on day 2, was administered on day 3 after a moderate fat breakfast, and was administered from day 4 in the fasting state. Dose escalation proceeded based on the occurrence of DLT together with target saturation by ^18F-FES PET/CT scans[45] and pharmacokinetic parameters during the first 28-day cycle, and according to a 3 + 3 design. […] During dose expansion, patients were treated at the RP2D. Patients were treated until disease progression, unacceptable toxicity, withdrawal of patient consent, or other reasons determined by the investigator (poor compliance with the protocol or intercurrent illness). […]
Analysis populations and associated statistical methods. […] Results were analyzed using descriptive statistics. […]

Structure (SMILES): O=C(O)c1ccc2c(c1)CCCC(c1ccc(Cl)cc1Cl)=C2c1ccc(O[C@H]2CCN(CCCF)C2)cc1 [amcenestrant, 6-(2,4-Dichlorophenyl)−5-[4-[(3S)−1-(3-fluoropropyl)pyrrolidin-3-yl]oxyphenyl]−8,9-dihydro-7H-benzo[7]annulene-2-carboxylic acid]
- ER activation score by GSVA, median change from screening ([1]; cycle 2, day 28, n = 5, range −1.1 to +0.4): −0.4
- ER activation score, median change from screening ([1]; patients who showed clinical benefit, n = 4, range −1.1 to 0): −0.6
- ER activation score, change from screening ([1]; the patient with no clinical benefit): +0.4
- metabolic stability [2]: metabolically stable
- maximum tolerated dose (MTD) ([3]; Part A, 20-600 mg QD): not reached
- dose-limiting toxicities ([3]; in vivo): No dose-limiting toxicities occurred
